We go through 15 molecules from patent US5641798A, “Bicyclic compounds and their use as excitatory amino acid receptor antagonists” (Eli Lilly and Company, priority 1995, dated 1997).

Several values for one entry are separate records, joined by “and”; a condition that tells them apart may be missing. Equal values may be shown once. Read-outs that look alike come from different tables or passages of the source.

For orientation: IC50 means the concentration that inhibits the measured activity by half.

The test system of one experiment is formalin model. The conditions noted are these: mouse; cited from earlier work.
The test system of experiment [1] is NMDA receptor. The experiment can be described thus: Antagonism of NMDA-induced depolarization of rat cortical wedges. Format: cell-based. The following applies: for NMDA receptor antagonist activity: cortical wedge assay, Table II. As to the method: The depolarization of rat cortical wedges was used to test the selectivity and potency of the formula I compounds as NMDA antagonist using a technique similar to that described by Harrison and Simmonds. Harrison and Simmonds, Bri. J. Pharmacol., 84, 381-391 (1984). Generally, 4-ml aliguots of NMDA (40 μM)were superfused (2 ml/min)on the gray matter at intervals of 15 to 20 minutes until stable responses where obtained. The tissue was then exposed for 15 minutes to various concentrations of the formula I compounds before retesting the agonist. The IC50 values were calculated from linear regression of log dose-response curves, each point the mean of at least three observations on separate slices from more than one animal.
The cortical wedge assay distinguishes between agonist and antagonist activity.

The target of experiment [2] is NMDA receptor. Kind of experiment: [3H]CGS19755 radioligand binding to Triton-X-treated synaptosomal membranes of rat forebrain. More on the design: species or system rat (male Sprague-Dawley). The conditions noted are these: [3H]CGS19755 10 nM, ice-bath 30 min, mean, standard error, n=3. As to the method:
The formula I compounds were tested for their ability to inhibit NMDA receptor binding to rat membranes in a radioligand binding assay using [^3 H]CGS19755. For these radioligand binding assays, male Sprague-Dawley rats were used. Displacement of the specific binding [^3 H]CGS19755 (10 nM)to Triton-X-treated synaptosomal membranes of rat forebrain was used to determine NMDA receptor affinity. Non-specific binding was determined using 10 μM L-glutamate. Samples were incubated in an ice-bath for 30 minutes, and bound ligand was separated from the free ligand by rapid filtration through WHATMAN GF/B glass fiber filters. Murphy et al, British J. Pharmacol., 95, 932-938 (1988). The concentration of the formula I compound that inhibited 50% binding (IC50, mean standard error, n=3)was calculated by linear regression of displacement data transformed to the Hill equation as described by Bennett. Bennett, Neurotransmitter Receptor Binding, 57-90 (1978).

The target of experiment [3] is NMDA receptor. The experiment can be described thus: [3H]MK-801 binding to well washed rat cortical membranes. The following applies: [3H]MK-801 2.5 nM, glutamate 0.001 μM and glycine 10 μM, 27° C., two hours, mean of three experiments. On the procedure:
The formula I compounds were also tested for their ability to inhibit NMDA receptor binding using [^3 H]MK-801 (New England Nuclear, Boston, Mass.). Rat brain cortices were extensively washed to remove endogenous glutamate and glycine. Cortices were homogenized in 20 volumes of ice-cold 0.32M sucrose and centrifuged at 1,000 xg for ten minutes. The supernatant was then centrifuged at 20,000 xg for 20 minutes. The resulting pellet was resuspended in 30 volumes of distilled water and centrifuged at 8,000 xg for 20 minutes. The resulting supernatant was centrifuged at 45,000 xg for 20 minutes and the pellet frozen in liquid nitrogen for at least 24 hours. On the day of the assay, the pellet was thawed at room temperature and resuspended in 30 volumes of ice-cold distilled water and centrifuged at 45,000 xg for 20 minutes. The final pellet was resuspended in 50 mM Tris (pH 7.4)at a concentration of 10 vol/gram wet weight of tissue.
The binding of [^3 H]MK-801 to well washed rat cortical membranes was conducted in the presence of added glutamate (0.001 μM) and glycine (10 μM). Antagonists were incubated with [^3 H]MK-801 (2.5 nM) and membrane aliquots (μg/ml protein)in a final volume of 1 ml at 27° C. for two hours. Nonspecific [^3 H]MK-801 binding was determined in the presence of 100 μM MK-801. Assays were terminated by filtering the samples over Whatman GF/B glass-fiber filters, presoaked in 0.05% polyethyleneimine, followed by a 10 ml ice cold saline wash.
These assays were performed in triplicate, and the mean values of three separate experiments were used to obtain the half maximal effective concentration. Final protein concentrations (0.5 mg/ml)for each assay were determined using the Lowry et al. (1951)method. Lowry, Rosebrough, Farr, and Randall, J. Biol. Chem., 193, 265-275 (1951). Analysis of the data was performed using a four-parameter logistic equation Graphpad Software San Diego, Calif.).

The test system of the next experiment is CNS ischemia. The conditions noted are these: rabbits; cited from earlier work.
For experiment [4], the system named is focal cerebral ischemia. The conditions noted are these: rats; cited from earlier work.
The test system of experiment [5] is warm water tail withdrawal. The conditions noted are these: rhesus monkeys; cited from earlier work.
Experiment [6] deals with focal cerebral ischemia. The conditions noted are these: cats; cited from earlier work.

Turning to `NC(CCCP(=O)(O)O)C(=O)O` (racemic) [DL-AP5], the “analgesia in formalin model” value in the experiment with formalin model was “analgesic”.
Turning to `O=C(O)[C@H]1NC[C@@H]2CC[C@H](Cc3nn[nH]n3)[C@@H]21` (relative stereo) [Compound 33, (1SR,2SR,5RS,8RS)-3-Aza-8-((1(2)H-tetrazol-5-yl)methyl)bicyclo[3.3.0]octane-2-carboxylic Acid], the IC50 in the experiment on NMDA receptor [1] (0.25 h) is 28.6 ± 5.6 µM; at NMDA receptor [2], 0.67 µM and < 1 µM; at NMDA receptor [3], 36.6 ± 7 µM. For the same molecule, in the experiment with NMDA receptor [1], the “NMDA receptor antagonist activity” value was “NMDA receptor antagonists”.
Consider `O=C(O)[C@H]1NC[C@@H]2CC[C@@H](Cc3nn[nH]n3)[C@@H]21` (relative stereo) [Compound 38, (1SR,2SR,5RS,8SR)-3-Aza-8-((1(2)H-tetrazol-5-yl)methyl)bicyclo[3.3.0]octane-2-carboxylic Acid], for which the concentration for half-maximal inhibition (IC50) with NMDA receptor [1] (0.25 h) was > 100 µM; on NMDA receptor [2] it was 3.13 ± 0.58 µM; at NMDA receptor [3], 47.3 ± 7.62 µM.
Regarding `O=C(O)[C@H]1C[C@@H](Cc2nn[nH]n2)CCN1` (relative stereo) [LY233053], in the experiment with CNS ischemia, the “protection in CNS ischemia model” value is “provided protection”.
As for `O=C(O)[C@@H]1C[C@H](CP(=O)(O)O)CCN1` [CGS 19755], the “protection in focal cerebral ischemia model” value in the experiment on focal cerebral ischemia [4] is given as “provided protection”. For the same molecule, the “analgesia in warm water tail withdrawal procedure” value in experiment [5] is given as “analgesic”.
In the case of `O=C(O)[C@H]1NC[C@@H]2CCC(Cc3nn[nH]n3)[C@@H]21` (stereo partly drawn) [Compound 12, (1SR,2SR,5RS,8SR)-3-Aza-8-((1(2)H-tetrazol-5-yl)methyl)bicyclo[3.3.0]octane-2-carboxylic Acid and (1SR,2SR,5RS,8RS)-3-Aza-8-((1(2)H-tetrazol-5-yl)methyl)bicyclo[3.3.0]octane-2-carboxylic Acid], the IC50 in the experiment on NMDA receptor [1] (0.25 h) was 9.5 ± 5 µM; at NMDA receptor [2] it was 0.73 µM and < 1 µM; at NMDA receptor [3] it was 49.7 ± 14.2 µM. In the experiment on NMDA receptor [1], the “NMDA receptor antagonist activity” value is listed as “NMDA receptor antagonists”.
Consider `O=C(O)CC1CC[C@H]2CN[C@H](C(=O)O)[C@@H]12` (stereo partly drawn) [Compound 13, (1SR,2SR,5RS,8SR)-3-Aza-8-(carboxymethyl)bicyclo[3.3.0]octane-2-carboxylicAcid and (1SR,2SR,5RS,8RS)-3-Aza-8-(carboxymethyl)bicyclo[3.3.0]octane-2-carboxylicAcid], for which the IC50 in the experiment on NMDA receptor [1] (0.25 h) was found to be 52 ± 8 µM; at NMDA receptor [2], 1.19 ± 0.54 µM; at NMDA receptor [3] it was 39 ± 8.7 µM.
Taken in the same sequence, the figures for `O=C(O)CCC1CC[C@H]2CN[C@H](C(=O)O)[C@@H]12` (stereo partly drawn) [Compound 20, (1SR,2SR,5RS,8SR)-3-Aza-8-(2-carboxyethyl)bicyclo[3.3.0]octane-2-carboxylic Acid and (1SR,2SR,5RS,8RS)-3-Aza-8-(2-carboxyethyl)bicyclo[3.3.0]octane-2-carboxylic Acid] were > 100 µM, 1.44 ± 0.04 µM and 47.3 ± 21 µM.
In the case of `O=C(O)[C@H]1NC[C@@H]2CCC(CCc3nn[nH]n3)[C@@H]21` (stereo partly drawn) [Compound 21, (1SR,2SR,5RS,8SR)-3-Aza-8-(2-(1 (2)H-tetrazol-5-yl)ethyl)bicyclo[3.3.0]octane-2-carboxylic Acid and (1SR,2SR,5RS,8RS)-3-Aza-8-(2-(1(2)H-tetrazol-5-yl)ethyl)bicyclo[3.3.0]octane-2-carboxylic Acid], the IC50 was > 100 µM with NMDA receptor [1] (0.25 h), 4.5 ± 0.98 µM at NMDA receptor [2] and 37.7 ± 9.3 µM on NMDA receptor [3].
Take `O=C(O)[C@H]1NC[C@@H]2CCC(CCSc3nn[nH]n3)[C@@H]21` (stereo partly drawn) [Compound 22, (1SR,2SR,5RS,8SR)-3-Aza-8-(2-(1(2)H-tetrazole-5-thio)ethyl)bicyclo[3.3.0]octane-2-carboxylic Acid and (1SR,2SR,5RS,8RS)-3-Aza-8-(2-(1(2)H-tetrazole-5-thio)ethyl)bicyclo[3.3.0]octane-2-carboxylic Acid]: the results for the IC50 on NMDA receptor [2] and at NMDA receptor [3] were 26.1 ± 6.13 µM and > 100 µM, respectively.
In the case of `O=C(O)[C@H]1NC[C@@H]2CCC(CCOCc3nn[nH]n3)[C@@H]21` (stereo partly drawn) [Compound 23, (1SR,2SR, 5RS,8SR)-3-Aza-8-(2-(1(2)H-tetrazol-5-ylmethoxy)ethyl)bicyclo[3.3.0]octane-2-carboxylic Acid and (1SR,2SR,5RS,8RS)-3-Aza-8-(2-(1(2)H-tetrazol-5-ylmethoxy)ethyl)bicyclo[3.3.0]octane-2-carboxylic Acid], the 50% inhibitory concentration (IC50) was > 100 µM with NMDA receptor [1] (NMDA 40 μM, 15 min exposure to compound, rat cortical wedges, read-out: Antagonism of Cortical Wedge Depolarization IC50); > 100 µM on NMDA receptor [2]; > 100 µM on NMDA receptor [3].
In the case of `O=C(O)[C@H]1NC[C@@H]2CCC(OCc3nn[nH]n3)[C@@H]21` (stereo partly drawn) [Compound 27, (1SR,2SR,5RS,8SR)-3-Aza-8-((1(2)H-tetrazol-5-yl)methoxy)bicyclo[3.3.0]octane-2-carboxylic Acid and (1SR,2SR,5RS,8RS)-3-Aza-8-((1(2)H-tetrazol-5-yl)methoxy)bicyclo[3.3.0]octane-2-carboxylic Acid], the 50% inhibitory concentration (IC50) on NMDA receptor [2] was 5.66 ± 0.15 µM; on NMDA receptor [3] it was > 100 µM.
Consider `O=C(O)C1NCC2CCC(CSc3nn[nH]n3)C21` (stereo not drawn) [Compound 32, (1SR,2SR,5RS,8SR)-3-Aza-8-((1(2)H-tetrazole-5-thio)methyl)bicyclo[3.3.0]octane-2-carboxylic Acid], for which the half-maximal inhibitory concentration (IC50) worked out at 59.7 ± 10 µM in the experiment on NMDA receptor [1] (0.25 h), 1.31 ± 0.48 µM at NMDA receptor [2] and 27.8 ± 12.2 µM at NMDA receptor [3].
Regarding `O=C(O)[C@H]1CN(C/C=C/P(=O)(O)O)CCN1` [D-(-)CPP-ene], the “protection in focal cerebral ischemia model” value with focal cerebral ischemia [6] is recorded as “provided protection”.
In the case of `C[C@]12N[C@H](Cc3ccccc31)c1ccccc12` [dizocilpine], the “protection in focal cerebral ischemia model” value in the experiment on focal cerebral ischemia [4] and in the experiment on focal cerebral ischemia [6] was “provided protection” in each case.
